What all share (assay): growth of human tumour cells (NCI), 48 h
The subject of assay [1] is COLO 205 colon.
The subject of assay [2] is HCC-2998 colon.
Assay [3] has as its system HL-60(TB) leukemia.
Assay [4] has as its system HOP-62 NSCLC.
Assay [5] deals with LOX IMVI melanoma.
Assay [6] relates to MALME-3M melanoma.
Assay [7] has as its system OVCAR-4 ovarian.
Assay [8] has as its system OVCAR-5 ovarian.
Assay [9] relates to OVCAR-8 ovarian.
Assay [10] deals with UACC-62 melanoma.

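Exposure lasted 48 hours, with cells grown in 96-well plates and compounds tested at five concentrations. Here, GI50 denotes the concentration required for 50% inhibition of growth. TGI is the concentration that stops growth completely.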 Some results are limits rather than exact numbers.

For the compound `CC(C)c1cc(CN(C)C)c(O)c(C(C)(C)C)c1`, the TGI in assay [1] amounted to 36.7 µM; in assay [2], 29.6 µM; in assay [3], 15.1 µM; in assay [4] it was 62.9 µM; in assay [5], 32.5 µM; in assay [6], 76.2 µM. The TGI was 99.1 µM in [7], above 100 µM in assay [8], 99.6 µM in assay [9] and above 100 µM in [10].
On to `CCOC(=O)C12CCC(=O)C=C1[C@@H](C)C(=O)CC2` (some centres undefined), for which the TGI in [1], in assay [2], in assay [3], in assay [4], in assay [5] and in [6] was above 100 µM throughout. Also, the TGI in [8], in assay [9] and in assay [10] was above 100 µM in each case.
For the compound `Nc1nc(N)c2c(n1)NC(=O)c1c(c3ccccc3n1Cc1ccc(Cl)cc1)C2`, the TGI is 30.5 µM in [1]; 34.4 µM in assay [2]; 39.4 µM in [3]; 57.5 µM in [4]; 56.4 µM in assay [5]; above 100 µM in assay [6]. In addition, the TGI in assay [7] is 49.9 µM; in [8] it was above 100 µM; in assay [9], 96.6 µM; in [10], above 100 µM.
Turning to `CC(C)(C)N1C(C(=O)c2ccccc2)C1c1ccccc1` (centres undefined), the TGI in assay [1], in [2], in assay [3], in assay [4], in assay [5] and in [7] was above 100 µM each time. For the same compound, the TGI in [9] and in assay [10] was above 100 µM each time.
Turning to `C#CCOc1c(C(=O)OCC)c(=O)n(C)c2ccccc12`, the TGI in [1], in [3], in assay [5], in assay [6], in assay [9] and in assay [10] was above 100 µM each time.
Consider `CC(=O)OC(C)C1C2=C(C(=O)CC1(C)O)C(=O)c1c(ccc(-c3ccc4c(c3O)C(=O)C3=C(C4=O)C(C(C)OC(C)=O)C(C)(O)CC3=O)c1O)C2=O` (centres undefined), for which the TGI in assay [1] is 1.92 µM; in [2], 25.9 µM; in [3], above 100 µM; in assay [4] it was 33.4 µM; in assay [5] it was 3.07 µM; in [6], 2.12 µM. Further, the TGI in assay [7] was 5.26 µM; in assay [8], 11.3 µM; in [9], 7.42 µM; in assay [10] it was 3.1 µM.
Turning to `NC(=O)C(N)=O`, the TGI in assay [1], in assay [2], in assay [3], in [4], in assay [5] and in assay [6] was above 100 µM throughout. Besides, the TGI in assay [8], in assay [9] and in assay [10] was above 100 µM in each case.
With `CC(C)=CCNc1ncnc2nc[nH]c12`, the TGI in assay [1], in assay [3], in assay [4], in [5], in assay [6] and in [7] was above 100 µM in each case. Further, the TGI in assay [8], in assay [9] and in assay [10] was above 100 µM throughout.
Take `COC(=O)Nc1nc2cc(OC)c(OC)cc2c(=O)[nH]1`: the TGI in assay [1], in assay [2], in assay [3], in assay [4], in assay [6] and in assay [7] was above 100 µM each time. For the same compound, the TGI in assay [8], in assay [9] and in assay [10] was above 100 µM throughout.
On to `O=C(CSc1nc2ccccc2s1)c1sc2sc3ccccc3[n+]2c1[O-]`, for which the TGI in [1], in assay [3], in assay [4], in assay [5], in assay [6] and in [7] was above 100 µM each time. Moreover, the TGI in assay [8], in assay [9] and in assay [10] was above 100 µM throughout.
For `COc1ccc(C[C@H](N)C(=O)NC2C(CO)OC(n3cnc4c(N(C)C)ncnc43)C2O)cc1` (some centres undefined), the TGI in assay [1] was 0.302 µM; in [2], 1.01 µM; in assay [3], 0.442 µM; in [4], 2.07 µM; in [5], 0.288 µM; in assay [6], 2.53 µM. Further, the TGI in assay [7] stood at 2.1 µM; in assay [8], 42.3 µM; in assay [9], 0.68 µM; in assay [10], 0.411 µM.
For `O=C(CNc1cccc([N+](=O)[O-])c1)Nn1c(-c2ccccc2)nc2ccccc2c1=O`, the TGI in [1] stood at 3.17 µM; in assay [2], 2.81 µM; in assay [3], 1.81 µM; in assay [4] it was 4.25 µM; in assay [5], 0.663 µM; in assay [6], 2.41 µM. Further, the TGI in assay [8] is 3.46 µM; in [9], 5.31 µM; in assay [10], 0.608 µM.
As for `N#CCCCC[N+]12CN3CN(CN(C3)C1)C2`, the TGI in assay [1], in assay [2], in assay [3], in [4], in assay [5] and in [6] was above 100 µM each time. The TGI in [7], in [8], in assay [9] and in assay [10] was above 100 µM in each case.
As for `N#CN=C(N)NC(=O)/C=C/C=C/c1ccc(Cl)cc1`, the TGI in assay [1], in [3], in assay [4], in [5], in assay [6] and in assay [7] was above 100 µM throughout. The TGI in assay [8], in [9] and in [10] was above 100 µM each time.
`N=C(c1ccc2ccccc2c1)c1ccccc1Cc1ccccc1`: the TGI in assay [1] was above 100 µM; in assay [2], above 100 µM; in [3], 55.1 µM; in assay [4] it was above 100 µM; in assay [5], above 100 µM; in assay [7], above 100 µM. The TGI in assay [8], in assay [9] and in assay [10] was above 100 µM each time.
`O=c1ccc2nc(-c3ccccc3)nn(-c3ccccn3)c-2c1`: the GI50 is 20.9 µM in assay [2]; 1.34 µM in [3]; 21.8 µM in assay [4]; 4.03 µM in assay [5]; 1.92 µM in assay [6]; 1.67 µM in [7]. Moreover, the GI50 in [8] was 21.9 µM; in [9], 8.87 µM; in [10] it was 15 µM. The TGI in assay [2] turned out to be 44.5 µM; in assay [3], 4.33 µM; in assay [4] it was 82.9 µM; in assay [5] it was 25.3 µM; in assay [6], 3.56 µM; in [7], 3.19 µM. Further, the values for the TGI in assay [8], in assay [9] and in assay [10] were 54.9 µM, above 100 µM and 32.8 µM, respectively.

Source of the values: PubChem BioAssay (NCI).
